System: T1, ochratoxin A–HSA complex
T1 construct: purchased Sigma-Aldrich
Experiment: Fluorescence anisotropy of ochratoxin A–HSA complex
Type: binding, human
Settings: 1.0 µmol/L ochratoxin A, 1.5 µmol/L HSA, flavonoid 2.5–30 μM, PBS pH 7.4, λex 393 nm, λem 446 nm

Compound	Fluorescence anisotropy of ochratoxin A
O=C(O)C1OC(Oc2cc(O)c3c(=O)cc(-c4ccccc4)oc3c2)C(O)C(O)C1O (stereo not drawn) [Chrysin-7-glucuronide, chrysin-7-glucuronide]	failed to affect
O=c1cc(-c2ccccc2)oc2cc(O)cc(O)c12 [Chrysin, 5,7-dihydroxyflavone]	failed to affect
O=c1cc(-c2ccccc2)oc2cc(OS(=O)(=O)O)cc(O)c12 [Chrysin-7-sulfate, chrysin-7-sulfate]	concentration-dependent decrease
